Assay results published in patent US20110002843A1, “METHOD OF DETECTING MYOCARDIAL DYSFUNCTION IN PATIENTS HAVING A HISTORY OF ASTHMA OR BRONCHOSPASM” (priority 2005, published 2011).
Entries after “also recorded” stand apart in the source; their conditions may differ.

Experiment: Pulmonary responses and safety in human subjects with mild, intermittent asthma (single-blind and double-blind parts)
Assay type: in vivo
Procedure: Methodology: The study consisted of 2 parts, a Single-Blind Part and a Double-Blind Part. The dose escalating, Single-Blind Part enrolled subjects with mild, intermittent asthma and consisted of 3 sequentially enrolled dosing cohorts with 8 subjects per cohort, such that Dosing Cohorts 1, 2 and 3 received binodenoson target doses of 0.5 μg/kg, 1.0 μg/kg and 1.5 μg/kg, respectively. All 8 subjects in a dosing cohort must have completed dosing at the assigned dose and a medical review of each cohort must have been acceptable before enrollment in the next cohort began. The Double-Blind Part was initiated only if the medical review of all safety data from the Single-Blind Part was acceptable. In the Double Blind Part, subjects with mild, intermittent asthma were randomly assigned in a 2:1 ratio to receive either binodenoson 1.5 μg/kg (n=40 planned) or placebo control (n=20 planned).
Both study parts were comprised of Screening, Treatment and Follow-Up Visits. The Screening Visit occurred 7 to 14 days before the Treatment Visit and consisted of a physical examination, medical history and application of inclusion and exclusion criteria. Subjects were instructed to measure peak expiratory flow (PEF) and asthma symptoms during a period of at least 7 days prior to the Treatment Visit. Subjects were to continue to meet all Screening eligibility criteria at the Treatment Visit and forced expiratory volume in 1 second (FEV1) was to remain within 80% of predicted for subjects to be eligible for dosing. All subjects enrolled in the Single-Blind Part and subjects randomized to receive binodenoson in the Double-Blind Part received 3 intravenous (IV) injections during the Treatment Visit: (1) placebo; (2) a low, challenge binodenoson dose to detect potential hypersensitivity reactions; and (3) an assigned binodenoson test dose. Subjects randomized to receive placebo in the Double Blind Part received 3 placebo injections. The Follow-Up Visit occurred 2 to 4 days following the Treatment Visit.
Eligible subjects were males or non-pregnant, nonlactating females ≧18 years of age weighing <350 pounds with a medical history of mild, intermittent asthma (as defined in the “Guidelines for the Diagnosis and Management of Asthma” prepared by the National Institutes of Health [NIH]) within 6 months of Screening.
Subjects were not eligible for the study if they had resting sitting systolic blood pressure (SBP)<100 or >140 mmHg, diastolic blood pressure (DBP)<60 or >90 mmHg, pulse rate >95 beats per minute (bpm), or a lower limit FEV1 at rest of <80% of the predicted value at Screening.
Dose and Mode of Administration: A stock solution of binodenoson (25 μg/mL) was administered as a bolus injection over 30 seconds (0.1 μg/kg=0.004 mL/kg of stock solution, 0.5 μg/kg=0.02 mL/kg of stock solution, 1.0 μg/kg=0.04 mL/kg of stock solution and 1.5 μg/kg=0.06 mL/kg of stock solution).
Duration of Treatment: Each subject received three 30-second bolus IV injections separated by ≧90 minutes in both the Single Blind and Double-Blind Parts of the study.
Criteria for Evaluation: The primary safety endpoint was clinically significant bronchoconstriction, defined as a ≧20% decrease in FEV1 from the predrug baseline following binodenoson administration. Other safety assessments included need for rescue medication, regular measurements of pulmonary function (FEV1 [% predicted], forced vital capacity [FVC] and forced expiratory flow during the middle half of the FVC [FEF25%-75%]), vital signs, pulse oximetry, physical examination findings, electrocardiogram (ECG) results, clinical laboratory results and adverse events.
Statistical Methods: All data collected in the study were summarized by treatment (placebo; 0.1 μg/kg binodenoson challenge; or 0.5, 1.0, or 1.5 μg/kg binodenoson) and study Part (Single-Blind or Double-Blind with univariate summaries). Continuous variables were summarized with descriptive statistics (n, mean, median, standard deviation [SD] and minimum and maximum). […]

[1] = double-blind, Binodenoson Group, second injection 0.1 μg/kg iv bolus, 15 minutes
[2] = double-blind, Binodenoson Group, second injection 0.1 μg/kg iv bolus, 90 minutes
[3] = double-blind, binodenoson 1.5 μg/kg group
[4] = double-blind, third injection 1.5 μg/kg
[5] = double-blind, third injection 1.5 μg/kg iv bolus, 5 min
[6] = double-blind, third injection 1.5 μg/kg iv bolus, 15 min
[7] = double-blind, third injection 1.5 μg/kg iv bolus, 45 min
[8] = double-blind, third injection 1.5 μg/kg iv bolus, 90 min
[9] = single-blind, Cohort 1, second injection 0.1 μg/kg iv bolus, 15 minutes
[10] = single-blind, Cohort 1, second injection 0.1 μg/kg iv bolus, 90 minutes
[11] = single-blind, Cohort 2, second injection 0.1 μg/kg iv bolus, 15 minutes
[12] = single-blind, Cohort 2, second injection 0.1 μg/kg iv bolus, 90 minutes
[13] = single-blind, Cohort 3, second injection 0.1 μg/kg iv bolus, 15 minutes
[14] = single-blind, Cohort 3, second injection 0.1 μg/kg iv bolus, 90 minutes

Compound: Nc1nc(N/N=C/C2CCCCC2)nc2c1ncn2[C@@H]1O[C@H](CO)[C@@H](O)[C@H]1O (stereo in doubt) [Binodenoson, 2-{2-[(Cyclohexyl)methylene]hydrazino}adenosine]
- changes from baseline in mean FEV1, FEV1 (% predicted), FEF25%-75%, FVC (after any injection, single- or double-blind part): No clinically significant changes from baseline
- safety and tolerability (doses up to 1.5 μg/kg): safe and well tolerated
- FEF25%-75% Mean % Change from Baseline (SD) [1]: 1.531 (5.261) %
- FEF25%-75% Mean (SD) [1]: 2.946 (0.973)
- FEV1 (% predicted) Mean % Change from Baseline (SD) [1]: 0.3 (2.4) %
- FEV1 (% predicted) Mean (SD) [1]: 88.3 (6.9) % predicted
- FEV1 (L) Mean % Change from Baseline (SD) [1]: 0.421 (2.525) %
- FEV1 (L) Mean (SD) [1]: 3.170 (0.590) L
- FVC Mean % Change from Baseline (SD) [1]: 0.055 (2.683) %
- FVC Mean (SD) [1]: 4.051 (0.824)
- FEF25%-75% Mean % Change from Baseline (SD) [2]: 1.181 (6.739) %
- FEF25%-75% Mean (SD) [2]: 2.965 (1.071)
- FEV1 (% predicted) Mean % Change from Baseline (SD) [2]: −0.1 (2.9) %
- FEV1 (% predicted) Mean (SD) [2]: 87.9 (7.7) % predicted
- FEV1 (L) Mean % Change from Baseline (SD) [2]: −0.042 (3.348) %
- FEV1 (L) Mean (SD) [2]: 3.152 (0.574) L
- FVC Mean % Change from Baseline (SD) [2]: −0.457 (3.163) %
- FVC Mean (SD) [2]: 4.021 (0.778)
- abdominal discomfort, treatment emergent AE [3]: 5%
- dizziness, treatment emergent AE [3]: 18%
- flushing, treatment emergent AE [3]: 15%
- headache, treatment emergent AE [3]: 5%
- nausea, treatment emergent AE [3]: 8%
- sinus tachycardia, treatment emergent AE [3]: 8%
- tachycardia, treatment emergent AE [3]: 31%
- changes from baseline in mean FEV1, FEV1 (% predicted), FEF25%-75%, FVC (double-blind, binodenoson 1.5 μg/kg group, after first or second injections): no clinically significant changes from baseline
- subjects who experienced AEs (double-blind, binodenoson 1.5 μg/kg subjects (placebo 19%)): 69%
- changes from baseline in mean FEV1, FEV1 (% predicted), FEF25%-75%, FVC [4]: No clinically significant changes from baseline
- treatment differences in pulmonary function versus placebo [4]: no statistically significant treatment differences
- FEF25%-75% Mean % Change from Baseline (SD) [5]: −0.877 (6.999) %
- FEF25%-75% Mean (SD) [5]: 2.913 (0.981)
- FEV1 (% predicted) Mean % Change from Baseline (SD) [5]: 0.1 (3.3) %
- FEV1 (% predicted) Mean (SD) [5]: 88.0 (8.7) % predicted
- FEV1 Mean % Change from Baseline (SD) [5]: 0.028 (3.849) %
- FEV1 Mean (SD) [5]: 3.153 (0.589)
- FVC Mean % Change from Baseline (SD) [5]: 0.186 (4.299) %
- FVC Mean (SD) [5]: 4.022 (0.746)
- FEF25%-75% Mean % Change from Baseline (SD) [6]: −0.477 (6.555) %
- FEF25%-75% Mean (SD) [6]: 2.930 (1.012)
- FEV1 (% predicted) Mean % Change from Baseline (SD) [6]: −0.3 (2.6) %
- FEV1 (% predicted) Mean (SD) [6]: 87.6 (8.5) % predicted
- FEV1 Mean % Change from Baseline (SD) [6]: −0.405 (3.079) %
- FEV1 Mean (SD) [6]: 3.137 (0.574)
- FVC Mean % Change from Baseline (SD) [6]: −0.309 (3.272) %
- FVC Mean (SD) [6]: 4.004 (0.755)
- FEF25%-75% Mean % Change from Baseline (SD) [7]: 0.388 (7.548) %
- FEF25%-75% Mean (SD) [7]: 2.940 (0.959)
- FEV1 (% predicted) Mean % Change from Baseline (SD) [7]: 0.1 (3.3) %
- FEV1 (% predicted) Mean (SD) [7]: 88.0 (8.3) % predicted
- FEV1 Mean % Change from Baseline (SD) [7]: 0.056 (3.888) %
- FEV1 Mean (SD) [7]: 3.156 (0.598)
- FVC Mean % Change from Baseline (SD) [7]: −0.133 (4.369) %
- FVC Mean (SD) [7]: 4.015 (0.780)
- FEF25%-75% Mean % Change from Baseline (SD) [8]: −0.335 (8.198) %
- FEF25%-75% Mean (SD) [8]: 2.923 (0.963)
- FEV1 (% predicted) Mean % Change from Baseline (SD) [8]: 1.1 (3.2) %
- FEV1 (% predicted) Mean (SD) [8]: 89.0 (7.7) % predicted
- FEV1 Mean % Change from Baseline (SD) [8]: 1.228 (3.835) %
- FEV1 Mean (SD) [8]: 3.191 (0.588)
- FVC Mean % Change from Baseline (SD) [8]: 1.755 (3.720) %
- FVC Mean (SD) [8]: 4.093 (0.800)
- changes in SBP, pulse rate and DBP (double-blind, magnitude greater in binodenoson than placebo group): Transient increases in SBP and pulse rate and decreases in DBP
- need for rescue medication (single- and double-blind parts): No subject required rescue medication
- clinically significant bronchoconstriction (≧20% decrease in FEV1 from predrug baseline) (single- and double-blind parts, doses up to 1.5 μg/kg): No bronchoconstriction events; also recorded: did not induce bronchoconstriction
- FEF25%-75% Mean % Change from Baseline (SD) [9]: 0.526 (7.433) %
- FEF25%-75% Mean (SD) [9]: 2.994 (0.911)
- FEV1 (% predicted) Mean % Change from Baseline (SD) [9]: 0.1 (3.6) %
- FEV1 (% predicted) Mean (SD) [9]: 90.5 (12.1) % predicted
- FEV1 (L) Mean % Change from Baseline (SD) [9]: 0.136 (3.922) %
- FEV1 (L) Mean (SD) [9]: 3.908 (0.824) L
- FVC Mean % Change from Baseline (SD) [9]: −0.003 (2.480) %
- FVC Mean (SD) [9]: 5.516 (1.130)
- FEF25%-75% Mean % Change from Baseline (SD) [10]: 9.136 (9.019) %
- FEF25%-75% Mean (SD) [10]: 3.241 (0.946)
- FEV1 (% predicted) Mean % Change from Baseline (SD) [10]: 4.5 (3.5) %
- FEV1 (% predicted) Mean (SD) [10]: 94.9 (12.3) % predicted
- FEV1 (L) Mean % Change from Baseline (SD) [10]: 5.043 (4.097) %
- FEV1 (L) Mean (SD) [10]: 4.101 (0.867) L
- FVC Mean % Change from Baseline (SD) [10]: 2.379 (3.221) %
- FVC Mean (SD) [10]: 5.654 (1.188)
- FEF25%-75% Mean % Change from Baseline (SD) [11]: 0.724 (4.318) %
- FEF25%-75% Mean (SD) [11]: 3.665 (1.555)
- FEV1 (% predicted) Mean % Change from Baseline (SD) [11]: 1.4 (2.5) %
- FEV1 (% predicted) Mean (SD) [11]: 94.8 (13.2) % predicted
- FEV1 (L) Mean % Change from Baseline (SD) [11]: 1.292 (2.662) %
- FEV1 (L) Mean (SD) [11]: 3.944 (0.895) L
- FVC Mean % Change from Baseline (SD) [11]: 2.129 (3.295) %
- FVC Mean (SD) [11]: 5.120 (1.195)
- FEF25%-75% Mean % Change from Baseline (SD) [12]: −2.574 (12.173) %
- FEF25%-75% Mean (SD) [12]: 3.471 (1.285)
- FEV1 (% predicted) Mean % Change from Baseline (SD) [12]: 0.3 (4.2) %
- FEV1 (% predicted) Mean (SD) [12]: 93.6 (13.0) % predicted
- FEV1 (L) Mean % Change from Baseline (SD) [12]: 0.165 (4.367) %
- FEV1 (L) Mean (SD) [12]: 3.895 (0.854) L
- FVC Mean % Change from Baseline (SD) [12]: 1.624 (3.599) %
- FVC Mean (SD) [12]: 5.100 (1.219)
- FEF25%-75% Mean % Change from Baseline (SD) [13]: 0.635 (6.670) %
- FEF25%-75% Mean (SD) [13]: 2.758 (0.695)
- FEV1 (% predicted) Mean % Change from Baseline (SD) [13]: 0.1 (2.7) %
- FEV1 (% predicted) Mean (SD) [13]: 90.5 (8.5) % predicted
- FEV1 (L) Mean % Change from Baseline (SD) [13]: 0.145 (2.786) %
- FEV1 (L) Mean (SD) [13]: 3.325 (0.690) L
- FVC Mean % Change from Baseline (SD) [13]: 0.480 (2.084) %
- FVC Mean (SD) [13]: 4.364 (0.876)
- FEF25%-75% Mean % Change from Baseline (SD) [14]: 4.324 (8.478) %
- FEF25%-75% Mean (SD) [14]: 2.836 (0.636)
- FEV1 (% predicted) Mean % Change from Baseline (SD) [14]: 0.9 (2.0) %
- FEV1 (% predicted) Mean (SD) [14]: 91.3 (7.3) % predicted
